Test results: PubChem BioAssay AID256 (DTP/NCI, 2004)
Values joined by “and” are separate entries in the source; they are usually repeats but may differ in a detail not shown here. Identical values can stand only once. Inconclusive results and toxic doses are left out. How the source made its calls: active means survival T/C of 150% or more; inactive means T/C below 125% in these data.

Tested on: CD2F1 mice, L1210 leukemia ip, survival T/C
Experiment: NCI In Vivo Anticancer Drug Screen. Data for tumor model L1210 Leukemia (intraperitoneal) in CD2F1 (CDF1) mice
Details: endpoint: mean survival time, higher = longer survival
How it was run: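 Activity against a transplanted murine tumor was judged by comparing the compound group with a vehicle group. The outcome in the treated animals was divided by that in the controls.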

[1] = dose: 100.0 mg/kg/injection, schedule: Q04DX003 (ip), vehicle: saline with Tween-80
[2] = dose: 200.0 mg/kg/injection, schedule: Q04DX003 (ip), vehicle: saline with Tween-80
[3] = dose: 400.0 mg/kg/injection, schedule: Q04DX003 (ip), vehicle: saline with Tween-80
[4] = dose: 25.0 mg/kg/injection, schedule: Q01DX009 (ip), vehicle: saline with Tween-80
[5] = dose: 50.0 mg/kg/injection, schedule: Q01DX009 (ip), vehicle: saline with Tween-80
[6] = dose: 50.0 mg/kg/injection, schedule: Q01DX001 (ip), vehicle: Klucel (hydroxypropylcellulose) (HPC)
[7] = dose: 100.0 mg/kg/injection, schedule: Q01DX009 (ip), vehicle: saline with Tween-80

Measured: T/C

COc1ccc(C2CCc3cc4c(cc3C2=O)OCO4)cc1OC (stereo not given)
inactive: [1] 98 % of control | [2] 96 % of control | [3] 91 % of control

C/C=C/c1cc2n(c1)C(=O)c1cc(OC3OC(C)C(NC)C(C)(O)C3O)c(C)c(O)c1NC2O (stereo not given)
inactive: dose: 4.0 micrograms/kg/injection, schedule: Q01DX009 (ip), vehicle: saline 108 % of control | dose: 8.0 micrograms/kg/injection, schedule: Q01DX009 (ip), vehicle: saline 110 % of control

CCCCC(CCC)OC(=O)Nc1cccc2ccccc12 (stereo not given)
inactive: dose: 100.0 mg/kg/injection, schedule: Q01DX001 (ip), vehicle: saline with Tween-80 93 % of control | dose: 200.0 mg/kg/injection, schedule: Q01DX001 (ip), vehicle: saline with Tween-80 93 % of control | dose: 400.0 mg/kg/injection, schedule: Q01DX001 (ip), vehicle: saline with Tween-80 93 % of control

N/N=C(\NN)c1ccccc1
inactive: [1] 92 % of control | [2] 87 % of control | [3] 92 % of control

NC(=O)CCC(N)C(=O)O.[Cl-].[Cl-].[Cl-].[Cl-].[Pt+2] (stereo not given)
inactive: dose: 12.5 mg/kg/injection, schedule: Q01DX009 (ip), vehicle: water 107 % of control | dose: 25.0 mg/kg/injection, schedule: Q01DX009 (ip), vehicle: water 100 % of control | dose: 25.0 mg/kg/injection, schedule: Q04DX003 (ip), vehicle: saline 111 % of control | dose: 50.0 mg/kg/injection, schedule: Q04DX003 (ip), vehicle: saline 119 % of control

O=C1C=CC(=O)C(Br)C1Br (stereo not given)
inactive: dose: 37.5 mg/kg/injection, schedule: Q01DX009 (ip), vehicle: saline 93 % of control | dose: 37.5 mg/kg/injection, schedule: Q04DX003 (ip), vehicle: saline 95 % of control | dose: 75.0 mg/kg/injection, schedule: Q01DX001 (ip), vehicle: saline 97 % of control | dose: 75.0 mg/kg/injection, schedule: Q01DX009 (ip), vehicle: saline 93 % of control | dose: 75.0 mg/kg/injection, schedule: Q04DX003 (ip), vehicle: saline 103 % of control | dose: 150.0 mg/kg/injection, schedule: Q01DX001 (ip), vehicle: saline 101 % of control | dose: 150.0 mg/kg/injection, schedule: Q01DX009 (ip), vehicle: saline 94 % of control | dose: 150.0 mg/kg/injection, schedule: Q04DX003 (ip), vehicle: saline 93 % of control

C1=CC=CCC=C1
inactive: dose: 12.5 mg/kg/injection, schedule: Q01DX009 (ip), vehicle: saline with Tween-80 92 % of control | [4] 92 % of control | [5] 98 % of control

NS(=O)(=O)c1ccc(NC(=O)/C=C/C(=O)O)cc1
inactive: dose: 100.0 mg/kg/injection, schedule: Q04DX003 (ip), vehicle: saline 101 % of control | dose: 200.0 mg/kg/injection, schedule: Q04DX003 (ip), vehicle: saline 97 % of control | dose: 400.0 mg/kg/injection, schedule: Q04DX003 (ip), vehicle: saline 97 % of control

CN[C@H]1CCc2cc(OC)c(OC)c(OC)c2-c2ccc(SC)c(=O)cc21
inactive: dose: 12.5 mg/kg/injection, schedule: Q01DX001 (ip), vehicle: Klucel (hydroxypropylcellulose) (HPC) 104 % of control | dose: 25.0 mg/kg/injection, schedule: Q01DX001 (ip), vehicle: Klucel (hydroxypropylcellulose) (HPC) 106 % of control | [6] 102 % of control

c1cc2c3c(c1)nc(CCc1nc4cccc5c4n1CCC5)n3CCC2
inactive: [4] 100 % of control | [5] 91 % of control | [7] 92 % of control

CCOC(=O)/C(C#N)=C/NC(N)=O
inactive: [6] 100 % of control | dose: 100.0 mg/kg/injection, schedule: Q01DX001 (ip), vehicle: Klucel (hydroxypropylcellulose) (HPC) 91 % of control and 92 % of control | dose: 200.0 mg/kg/injection, schedule: Q01DX001 (ip), vehicle: Klucel (hydroxypropylcellulose) (HPC) 103 % of control | dose: 400.0 mg/kg/injection, schedule: Q01DX001 (ip), vehicle: Klucel (hydroxypropylcellulose) (HPC) 88 % of control

CCOC(=O)CCC1(C(=O)OC)C(=O)CCCCC/C=C/1C(=O)OC (stereo not given)
inactive: [7] 101 % of control | dose: 200.0 mg/kg/injection, schedule: Q01DX009 (ip), vehicle: saline with Tween-80 93 % of control | dose: 400.0 mg/kg/injection, schedule: Q01DX009 (ip), vehicle: saline with Tween-80 96 % of control

CN(C)/C=C\C(=O)O
inactive: dose: 100.0 mg/kg/injection, schedule: Q04DX002 (ip), vehicle: saline with Tween-80 102 % of control | dose: 200.0 mg/kg/injection, schedule: Q04DX002 (ip), vehicle: saline with Tween-80 102 % of control | dose: 400.0 mg/kg/injection, schedule: Q04DX002 (ip), vehicle: saline with Tween-80 98 % of control
